Tested on: H9 hESCs
Assay: Screening of culture conditions by immunostaining for Oct4, Sox2, Brachyury, Sox17
Assay type: cell-based, human
Design: key to Pluripotency Oct4, fraction of expressing cells / Neuro Sox2, fraction of expressing cells / Meso Brachyury, fraction of expressing cells / Endo Sox17, fraction of expressing cells: 0 for absence of expression; VL for expressing cells <1%; L for expressing cells <5%; H for expressing cells >10%; VH for expressing cells >50%
Details: Conditions CDM (CDM-BSA), 7 days or more
Description: Table 2 and Table 3 show the screening of culture conditions for inducing mesoendoderm differentiation into CDM. H9 hESCs were grown for 7 days or more in CDM-BSA or CDM-PVA supplemented with different growth factors (Activin, BMP4, FGF2) or inhibitors (SU5402 for FGF, SB431542 for Activin/Nodal/TGFβ, BIO for βCatenin). Then, immunostaining analysis were used to determine the fractions of cells expressing the pluripotent marker Oct-4, neuroectoderm marker Sox2, the mesoderm marker Brachyury, and the endoderm marker Sox17. The quantities of expressing cells were divided into five arbitrary categories. 0 for absence of expression, VL for expressing cells <1%, L for expressing cells <5%, H for expressing cells >10%, VH for expressing cells >50%. IN red are indicated the conditions allowing the generation of mesendoderm cells expressing Brachyury or Sox17.
HESCs or differentiated progenitors were fixed for 20 minutes at 4° C. in 4% paraformaldehyde (PFA) and then washed three times in PBS. Cells were incubated for 20 minutes at room temperature in PBS containing 10% goat serum (Serotec) and subsequently incubated over night at 4° C. with primary antibody diluted in 1% goat serum in PBS as follows: SSEA-3 (1:100, Santa Cruz), SSAE-1 (1:25), Tra-1-60 (1:100, Santa CruZ), Oct-4 (1:100, Abcam ab18976 or SantaCruz), Sox2 (1:100, Abcam ab15830), Alkaline Phophatase (1:50, Abcam ab17989), Brachyury (1:100, Abcam ab20680 or RandD systems), Sox17 (RandD systems), FoxA2 (1:50, Abcam ab5074), GATA4 (1:250, Santa CruZ), GATA6 (1:200, Abcam ab22600 or Santa Cruz), Vent-2 (1:100, Abcam ab20913), Goosecoid (1:25, Abcam ab21059), Wnt3A (1:100, Abcam ab19925), CXCR4 (1:100, RanD Systems or Pharmingen). Nestin (1:200, Abcam ab5968), NCAM (1:100, Abcam ab8077), GFAP (ZZ), Neurofilament (ZZ), βIII Tubulin (ZZ), Glutamate (ZZ), N-Cadherin (1:100, Abcam ab18203 or ZZ). Cells were then washed three times in PBS and incubated with fluorescein-Isothiocyanate-conjugated anti-mouse IgG or IgM (Sigma 1:200 in 1% goat serum in PBS) or rat IgM (Jackson laboratory 1:300 in goat serum in PBS) or rabbit IgG (Jackson laboratory 1:200 in donkey serum in PBS) for two hours at room temperature. Unbound secondary antibody was removed by 3 washes in PBS. Hoechst 33258 was added to the first wash (Sigma 1:10000).
We then developed a method for inducing differentiation of hESCs into the three primary germ layers. Culture conditions inductive for mesoderm, endoderm and neuroectoderm were screened using an approach based on immunostaining analyses for the expression of proteins specifically expressed by pluripotent cells (Oct-4), neuroectoderm progenitors (Sox2 in absence of Oct4), endoderm progenitors (Sox17) and mesoderm progenitors (Brachyury). In summary, hESCs grown in CDM (CDM-BSA or hu-CDM) were plated on fibronectin in CDM-BSA/AF or CDM-PVA/AF. Then cocktails of growth factors (BMP4, FGF2, Activin) or chemical inhibitors (SU5402, SB431542) were added at different times and for different periods. After 7 to 10 days treatment, cells were fixed and then the expression of Oct-4/Sox2, Sox17 and Brachyury was analysed using immunostaining. The effect of three growth factors on the differentiation of hESCs into the primary germ layers was systematically analysed in our screen. We also studied the function of FGF and Activin signalling pathways in the maintenance of the pluripotent state by analysing the effect of the SU5402, a chemical inhibitor of FGF receptors, and the SB431542, a chemical inhibitor of Activin/TGFβ receptors.

BMP4: Bone Morphogenetic Protein 4 growth factor
0: Endo Sox17, fraction of expressing cells | Meso Brachyury, fraction of expressing cells | Neuro Sox2, fraction of expressing cells | Pluripotency Oct4, fraction of expressing cells

Source: patent US8323971B2, “Differentiation of pluripotent cells into primary germ layer progenitors” (Cambridge Enterprise Limited, priority 2006, dated 2012)
